Read-outs that look alike come from different tables or passages of the source.

One assay deals with menopausal women. The experiment in a line: Sequential estrogen-progestative therapy: interval before periods after therapy is interrupted. The settings on record: Day 13-22, with 30 μg ethinyl estradiol. The format is in vivo. The protocol: (§1) Menopausal women, whether naturally or as the result of surgery, were subjected to a sequential estrogen-progestative therapy. From Day 1 to Day 12 they received 30 μg of ethinyl estradiol and then, from Day 13 to Day 22, the same dose of ethinyl estradiol associated with different doses of nomegestrol acetate or chlormadinone acetate. The doses were as follows:
(§2) The number of women was between 2 and 11, depending on the group. There was then a therapeutic pause of 7 days followed by a second treatment cycle.
(§3) The parameters taken into account were as follows: • the interval before periods commenced after the therapy had been interrupted, following the first and second treatment cycles; • the histological appearance of the endometrium recovered in a biopsy carried out between Day 17 and Day 20 of the second cycle.

A further assay has as its system endometrial cells. Description: Sequential estrogen-progestative therapy: histological appearance of endometrium biopsy. The format is in vivo, women. To be noted: for Number of mitoses (% of section in which mitoses were present), Glands: with 30 μg ethinyl estradiol, biopsy Day 17-20 of second cycle. The protocol:
as §1, §2, §3

Assay [1] relates to ovulation. Description: Dose inhibiting ovulation (literature). The format is in vivo. The settings on record: NEUMANN; reference progestative norgestrel (=1). From the text:
(§4) 2) Apart from the above, it would be reasonable to think that the doses claimed should be based on data from clinical pharmacology and/or clinical data previously published and commonly accepted. Now, if the doses defined as in the PLUNKETT patents are considered, it is easy to see that in most cases the active doses published already a long time ago, i.e. before the said patents were filed (NEUMANN, 1977) or more recently (KUHL, 1996), are very coherent but only rarely lie within the dose ranges claimed in the patents in the name of PLUNKETT (Table 2).

Assay [2] in a line: Dose having a contraceptive effect (literature). The format is in vivo. The settings on record: NEUMANN; reference progestative norgestrel (=1).
Description: as §4

Assay [3] deals with endometrium. The settings on record: cited from earlier work.
Assay [4] concerns ovulation. To be noted: cited from earlier work.
For assay [5] the following is noted: NEUMANN publication; cited from earlier work.
The test system of assay [6] is endometrium. The experiment in a line: Dose inducing transformation of the endometrium (literature). The format is in vivo. To be noted: NEUMANN; reference progestative norgestrel (=1).
Description: as §4

For assay [7] the following is noted: NEUMANN publication; cited from earlier work. This is another data set of the same source.

In the case of `CC(=O)O[C@]1(C(C)=O)CC[C@H]2[C@@H]3C=C(Cl)C4=CC(=O)CC[C@]4(C)[C@H]3CC[C@@]21C` [Chlormadinone acetate, chlormadinone acetate], the “Interval before the appearance of periods after the therapy is discontinued” value with menopausal women (0.1 mg/day) is -2.3 ± 0.5 days; in the assay with menopausal women (0.5 mg/day), 2.0 ± 0.6 days; in the assay on menopausal women (1.0 mg/day), 3.8 ± 0.3 days; in the assay with menopausal women (2.0 mg/day) it was 3.8 ± 0.3 days; in the assay with menopausal women (5 mg/day) it was 5.5 ± 1.5 days; with menopausal women (10 mg/day), 5.5 ± 0.5 days. Besides, the “Number of mitoses (% of section in which mitoses were present), Glands” value in the assay on endometrial cells (0.1 mg/day) stood at 90%; in the assay on endometrial cells (1 mg/day), 50%; in the assay on endometrial cells (2 mg/day), 0%; in the assay with endometrial cells (5 mg/day), 0%; with endometrial cells (10 mg/day), 0%. Moreover, in the assay with endometrial cells (1 mg/day, sequential therapy with 30 μg ethinyl estradiol), the “Mitosis in glandular cells” value is “mitosis is still evident”.
Consider `CC(=O)O[C@]1(C(C)=O)CC[C@H]2[C@@H]3C=C(Cl)C4=CC(=O)[C@@H]5C[C@@H]5[C@]4(C)[C@H]3CC[C@@]21C` [CIP acetate, Cyproterone acetate], for which the “Dose ratio, Ovulation (3)” value in the assay on ovulation [1] is given as 10.0. Further, the “Dose ratio, Contraception (4)” value in [2] worked out at 8.0. The “Dose necessary to induce transformation of the endometrium (1)” value (shortened to “Dose necessary to induce transformation”) in the assay on endometrium [3] (KUHL) was 2000 µg/day; in the assay on endometrium [3] (NEUMANN publication) it was 1000 µg/day. For the same molecule, the “Dose necessary to inhibit ovulation (3)” value in the assay with ovulation [4] (KUHL) and in the assay on ovulation [4] (NEUMANN publication) was 1000 µg/day each time. Further, the “Dose necessary to have a contraceptive effect (4)” value (shortened to “Dose necessary … (4)”) in [5] is 2000 µg/day.
As to `C#C[C@]1(O)CC[C@H]2[C@@H]3CCC4=C(CCC(=O)C4)[C@H]3CC[C@@]21C` [Norethynodrel], in the assay on endometrium [6], the “Dose ratio, Endometrium (1)” value is on record as 8.3. In addition, the “Dose ratio, Contraception (4)” value in assay [2] amounted to 10.0. Besides, the “Dose necessary to induce transformation” value in the assay with endometrium [3] (NEUMANN publication) was 10000 µg/day. The “Dose necessary to produce an adequate delay in the onset of periods (2), Menstruation” value (from here on “Dose necessary … Menstruation”) in assay [7] was 7500 µg/day. For the same molecule, the “Dose necessary to inhibit ovulation (3)” value in the assay on ovulation [4] (NEUMANN publication) is 6000 µg/day. Also, the “Dose necessary … (4)” value in assay [5] is 2500 µg/day.
For the molecule `C#C[C@]1(O)CC[C@H]2[C@@H]3CCC4=CC(=O)CC[C@@H]4[C@H]3CC[C@@]21C` [Norethisterone], the “Dose ratio, Contraception (4)” value in assay [2] is reported as 4.0. The “Dose necessary to induce transformation” value with endometrium [3] (KUHL) is 10000 µg/day; in the assay with endometrium [3] (NEUMANN publication) it was 12500 µg/day. In addition, the “Dose necessary … Menstruation” value in assay [7] was 5000 µg/day. Further, the “Dose necessary to inhibit ovulation (3)” value with ovulation [4] (KUHL) is 400 µg/day; in the assay on ovulation [4] (NEUMANN publication) it was 800 µg/day. For the same molecule, in assay [5], the “Dose necessary … (4)” value was 1000 µg/day.
`CC(=O)O[C@]1(C(C)=O)CC[C@H]2[C@@H]3C[C@H](C)C4=CC(=O)CC[C@]4(C)[C@H]3CC[C@@]21C` [MPA, medroxyprogesterone acetate]: the “Dose ratio, Contraception (4)” value in [2] was 20.0. For the same molecule, the “Dose necessary to induce transformation” value with endometrium [3] (NEUMANN publication) is 5500 µg/day. Also, in [7], the “Dose necessary … Menstruation” value was 25000 µg/day. In addition, in assay [5], the “Dose necessary … (4)” value was 5000 µg/day.
Consider `C#C[C@]1(OC(C)=O)CC[C@H]2[C@@H]3CCC4=CC(=O)CC[C@@H]4[C@H]3CC[C@@]21C` [Norethisterone acetate], for which, in the assay with endometrium [6], the “Dose ratio, Endometrium (1)” value was determined as 3.8. In assay [2], the “Dose ratio, Contraception (4)” value is 4.0. Besides, the “Dose necessary to induce transformation” value in the assay with endometrium [3] (NEUMANN publication) is 4500 µg/day. Also, the “Dose necessary to inhibit ovulation (3)” value with ovulation [4] (NEUMANN publication) was 800 µg/day. The “Dose necessary … (4)” value in assay [5] is 1000 µg/day.
Consider `C#C[C@]1(O)CC[C@H]2[C@@H]3CCC4=CCCC[C@@H]4[C@H]3CC[C@@]21C` [Lynoestrenol], for which the “Dose ratio, Endometrium (1)” value with endometrium [6] worked out at 4.2. Besides, the “Dose ratio, Contraception (4)” value in [2] amounted to 10.0. Further, in the assay with endometrium [3] (NEUMANN publication), the “Dose necessary to induce transformation” value is 5000 µg/day. In addition, in assay [5], the “Dose necessary … (4)” value was 2500 µg/day.

(Values after patent US8168619B1, “Hormonal composition based on a progestational agent and an oestrogen and use thereof” (Laboratoire Theramex, priority 1999, dated 2012).)
